# Laboratory results as given in patent US5830996A, “Cyclic peptide antitumor agent from an ascidian” (University of Utah Research Foundation, priority 1996, dated 1998).
# Columns and labels:
# [1] = tested on: A498 cells; conditions: MTT assay
# Method: (§1) Vitilevuamide prepared according to the procedure of Example 1 or Example 2 was tested against a panel of human tumor cell lines: (a) a colon cancer cell line, HCT 116 (obtained from ATCC), M. Brattain, 41 Cancer Res. 1751 (1986); (b) an adenocarcinoma cell line, A549, D. J. Giard, 51 J. Nat'l Cancer Inst. 1417 (1973); (c) a malignant melanoma cell line, SK-MEL-5, H. F Oteggen, 41 J. Nat'l Cancer Inst. 827 (1968); and (d) a kidney carcinoma cell line, A498, S. Aaronson, 51 J. Nat'l Cancer Inst. 1417 (1973). Cells were cultured according to the procedure of M. C. Alley et al., 48 Cancer Res. 589 (1988), hereby incorporated by reference.
# (§2) Screening was performed in a 96-well microtiter plate by the standard 3-[4,5-dimethylthiazol-2-yl]-[…] bromide; thiazolyl blue (MTT) cell inhibition assay adopted for anticancer drug screening at NIH. J. Carmichael et al., 47 Cancer Res. 936 (1987), hereby incorporated by reference. Positive controls were run simultaneously.
# [2] = tested on: A549 cells; conditions: MTT assay
# Method: as §1, §2
# [3] = tested on: HCT 116 cells; conditions: MTT assay
# Method: as §1, §2
# [4] = tested on: SK-MEL-5 cells; conditions: MTT assay
# Method: as §1, §2
# [5] = tested on: C6 rat glioma cells; experiment: Tubulin inhibition assay (db-cAMP rounding, MTT readout); format: cell-based; conditions: 4 h treatment then 1 mM db-cAMP, colchicine 25 μg/mL positive control
# Method: C6 rat glioma cells (ATCC CCL107) were seeded into the wells of a microtiter plate and then incubated for 1 day. The cells were then treated with a range of vitilevuamide concentrations, normally 5 orders of magnitude, and incubated for 4 additional hours. The cells were then treated for 1 hour with 1 mM dibuteryl-cAMP (db-cAMP), which causes the C6 cells to assume a spherical morphology ("rounding") within 60 minutes due to polymerization of tubulin. Cells that are exposed to tubulin-active compounds, on the other hand, display a different morphological change--flattening and adherence to the substrate. All of the wells were then jet aspirated, and the wells were resupplied with fresh medium containing MTT. The glioma cells metabolize MTT to a dark formazan dye. P. R. Twentyman & M. Luscombe, 56 Br. J. Cancer 279 (1987); F. Denizot & R. Lang, 89 J. Immunol. Methods 271 (1986). Following 4 hours of incubation, absorbance was measured at 450 nm. Colchicine (25 μg/mL) was used as the positive control.
# [6] = tested on: P388 tumor cells; experiment: In vivo P388 tumor life span test in CDF1 mice; conditions: days 1, 5, 9, CDF1 mice with P388
# Method: Vitilevuamide was also screened for in vivo activity by injecting CDF1 mice intraperitoneally on day 0 with 1×10^6 P388 tumor cells. Five animals were randomly assigned to a group. On days 1, 5, and 9 after tumor implantation, these mice were treated intraperitoneally with either a placebo or the drug. Animals were checked twice daily, and the day of death of each mouse was recorded. A positive drug response is defined as a greater than 25% increase in the mean life span (% ILS) relative to the placebo control.
structure (smiles),measurement,setting,value
C=C1NC(=O)[C@H]([C@@H](C)CC)NC(=O)C2CSCC(NC(=O)CCC(=O)O)C(=O)N[C@H](Cc3ccccc3)C(=O)N[C@H](C)C(=O)NC(CC(C)CC)C(=O)N[C@@H](C(=O)N[C@H](Cc3ccccc3)C(=O)N3CCC[C@H]3C(=O)N2)[C@@H](C)OC(=O)[C@H](CO)NC(=O)C(C(O)COC)N(C)C(=O)[C@@H](C(C)C)NC(=O)C(CC(C)CC)NC1=O (stereo partly drawn) [vitilevuamide],50% inhibitory concentration (IC50),[1],5 µg/mL
same,50% inhibitory concentration (IC50),[2],0.2 µg/mL
same,50% inhibitory concentration (IC50),[3],0.01 µg/mL
same,50% inhibitory concentration (IC50),[4],0.5 µg/mL
same,concentration showing the same effect as colchicine,[5],4 µg/mL
same,% ILS (increase in mean life span relative to placebo),[6]; 0.006 mg/kg/dose i.p.,8%
same,% ILS (increase in mean life span relative to placebo),[6]; 0.012 mg/kg/dose i.p.,20%
same,% ILS (increase in mean life span relative to placebo),[6]; 0.03 mg/kg/dose i.p.,70%
same,% ILS (increase in mean life span relative to placebo),[6]; 0.06 mg/kg/dose i.p.,-13%
same,toxicity remark at dose,[6]; 0.06 mg/kg/dose i.p.,toxic
same,% ILS (increase in mean life span relative to placebo),[6]; 0.13 mg/kg/dose i.p.,-45%
same,toxicity remark at dose,[6]; 0.13 mg/kg/dose i.p.,toxic
